In the NIST ThermoML archive (doi:10.1021/je049622g):

Test: xn = mol fraction of the nth substance listed
Conditions: 311 K, Fluid (supercritical or subcritical phases), Pulse-echo method

CCCC [butane] + C
Conditions	speed of sound [m/s]
2068 kPa, x2 = 0.894	381.6
2758 kPa, x2 = 0.894	378.5
3447 kPa, x2 = 0.894	375.5
3930 kPa, x2 = 0.158	760.1
3999 kPa, x2 = 0.158	760.7
4137 kPa, x2 = 0.158	762.3
4137 kPa, x2 = 0.894	372.7
4826 kPa, x2 = 0.158	778.7
4826 kPa, x2 = 0.894	370.1
5516 kPa, x2 = 0.158	793.5
5516 kPa, x2 = 0.894	368
6205 kPa, x2 = 0.158	805.6
6205 kPa, x2 = 0.894	366.4
6895 kPa, x2 = 0.158	817.6
6895 kPa, x2 = 0.894	365.2
7584 kPa, x2 = 0.894	364.8
8274 kPa, x2 = 0.894	365.1
8963 kPa, x2 = 0.894	366
9653 kPa, x2 = 0.894	367.8
10342 kPa, x2 = 0.158	866
10342 kPa, x2 = 0.894	370.3
11032 kPa, x2 = 0.894	373.7
11721 kPa, x2 = 0.894	378
12411 kPa, x2 = 0.894	383.1
13100 kPa, x2 = 0.894	388.9
13128 kPa, x2 = 0.724	314.6
13148 kPa, x2 = 0.724	316.5
13231 kPa, x2 = 0.724	323.7
13307 kPa, x2 = 0.724	329.7
13472 kPa, x2 = 0.724	344
13790 kPa, x2 = 0.158	906.3
13790 kPa, x2 = 0.894	395.6
13845 kPa, x2 = 0.724	366.1
14479 kPa, x2 = 0.724	395.6
14479 kPa, x2 = 0.894	402.9
15168 kPa, x2 = 0.724	420.7
15168 kPa, x2 = 0.894	410.8
15858 kPa, x2 = 0.724	443.6
15858 kPa, x2 = 0.894	419.4
16547 kPa, x2 = 0.724	464.8
16547 kPa, x2 = 0.894	428.4
17237 kPa, x2 = 0.724	484.4
17237 kPa, x2 = 0.894	438
